Source: patent US20250129121A1, “POLYPEPTIDE, PRODUCT INCLUDING POLYPEPTIDE FOR INHIBITING FUSOBACTERIUM NUCLEATUM, OR DRUG FOR PREVENTING COLORECTAL CANCER” (priority 2022, published 2025)
Values after ≈ are worked out from the molar mass of the structure shown. Where a SMILES comes first, the peptide text is derived from it.

What was measured:
[1] = test system: Streptococcus agalactiae H94; type: cell-based; details: H94, 20 h
Protocol: (§1) A. Each polypeptide was prepared into a specified stock solution for later use. Minimum inhibitory concentrations (MICs) of the polypeptides P1 to P12 were determined by a broth microdilution method. With 0.01% acetic acid (including 0.2% of bovine serum albumin (BSA)) as a diluent, a series of gradient antimicrobial peptide solutions were prepared by a two-fold dilution method.
(§2) B. 100 μL of each polypeptide stock solution was taken and added to a 96-well cell culture plate, and then each strain solution to be tested (about 10^5/mL) was added in an equal volume to each well. A positive control (including a strain solution, but not including a polypeptide) and a negative control (including neither a strain solution nor a polypeptide). Strains to be tested include Escherichia coli Nissile 1917, Vibrio cholerae H1, Pseudomonas aeruginosa PAO1, F. nucleatum 25586, F. nucleatum 10953, Bifidobacterium uniformis 6597, Lactobacillus acidophilus 6075, Bifidobacterium longum 6194Lactobacillus rhamnosus 6141, and Streptococcus agalactiae H94.
(§3) C. The cell culture plate was incubated at a constant temperature of 37° C. for 20 h, and MIC was recorded when the turbidity was not observed by naked eyes at a bottom of a well. The strains all were purchased from the market.

[2] = test system: Bifidobacterium uniformis 6597; type: cell-based; details: 20 h
Protocol: as §1, §2, §3

[3] = test system: Escherichia coli Nissile 1917; type: cell-based; details: Nissile 1917, 20 h
Protocol: as §1, §2, §3

[4] = test system: Bifidobacterium longum 6194; type: cell-based; details: 20 h
Protocol: as §1, §2, §3

[5] = test system: Lactobacillus acidophilus 6075; type: cell-based; details: 20 h
Protocol: as §1, §2, §3

[6] = test system: Pseudomonas aeruginosa PAO1; type: cell-based; details: PAO1, 20 h
Protocol: as §1, §2, §3

[7] = test system: Lactobacillus rhamnosus 6141; type: cell-based; details: 20 h
Protocol: as §1, §2, §3

[8] = test system: F. nucleatum 25586; type: cell-based, Fusobacterium nucleatum; details: 25586, 20 h
Protocol: as §1, §2, §3

[9] = test system: F. nucleatum 10953; type: cell-based, Fusobacterium nucleatum; details: 10953, 20 h
Protocol: as §1, §2, §3

| Compound | MIC Streptococcus agalactiae H94 [1] | MIC Bifidobacteriu muniformis 6597 [2] | MIC Escherichia coli nissile1917 [3] | MIC Bifidobacterium longum 6194 [4] | MIC Lactobacillus acidophilus 6075 [5] | MIC Pseudomonas aeruginosa PAO1 [6] | MIC Lactobacterium rhamnosus 6141 [7] | MIC Fusobacterium nucleatum 25586 [8] | MIC Fusobacterium nucleatum 10953 [9] |
| --- | --- | --- | --- | --- | --- | --- | --- | --- | --- |
| N=C(N)NCCC[C@H](NC(=O)CNC(=O)[C@@H]1CCCN1C(=O)[C@H](CCCNC(=N)N)NC(=O)[C@H](Cc1c[nH]c2ccccc12)NC(=O)[C@H](CC(=O)O)NC(=O)[C@@H](N)Cc1c[nH]c2ccccc12)C(=O)N[C@@H](Cc1c[nH]c2ccccc12)C(=O)N[C@@H](CC(=O)O)C(=O)N[C@@H](Cc1c[nH]c2ccccc12)C(=O)O [P4, WDWRPGRWDW] (H-WDWRPGRWDW-OH; N-terminus assumed) | >64 µM | >64 µM | >64 µM | >64 µM | >64 µM | >64 µM | >64 µM | >64 µM | >64 µM |
| N=C(N)NCCC[C@H](NC(=O)CNC(=O)[C@@H]1CCCN1C(=O)[C@H](CCCNC(=N)N)NC(=O)[C@H](Cc1c[nH]c2ccccc12)NC(=O)[C@H](CC(=O)O)NC(=O)[C@H](Cc1c[nH]c2ccccc12)NC(=O)[C@H](CCCNC(=N)N)NC(=O)[C@H](Cc1c[nH]c2ccccc12)NC(=O)[C@H](CC(=O)O)NC(=O)[C@@H](N)Cc1c[nH]c2ccccc12)C(=O)N[C@@H](Cc1c[nH]c2ccccc12)C(=O)N[C@@H](CC(=O)O)C(=O)N[C@@H](Cc1c[nH]c2ccccc12)C(=O)N[C@@H](CCCNC(=N)N)C(=O)N[C@@H](Cc1c[nH]c2ccccc12)C(=O)N[C@@H](CC(=O)O)C(=O)N[C@@H](Cc1c[nH]c2ccccc12)C(=O)O [P5, WDWRWDWRPGRWDWRWDW] (H-WDWRWDWRPGRWDWRWDW-OH; N-terminus assumed) | >64 µM | >64 µM | 64 µM (≈ 176 µg/mL) | >64 µM | >64 µM | >64 µM | >64 µM | >64 µM | >64 µM |
| N=C(N)NCCC[C@H](NC(=O)CNC(=O)[C@@H]1CCCN1C(=O)[C@H](CCCNC(=N)N)NC(=O)[C@H](Cc1c[nH]c2ccccc12)NC(=O)[C@H](CCC(=O)O)NC(=O)[C@@H](N)Cc1c[nH]c2ccccc12)C(=O)N[C@@H](Cc1c[nH]c2ccccc12)C(=O)N[C@@H](CCC(=O)O)C(=O)N[C@@H](Cc1c[nH]c2ccccc12)C(=O)O [P1, WEWRPGRWEW] (H-WEWRPGRWEW-OH; N-terminus assumed) | >64 µM | >64 µM | >64 µM | >64 µM | >64 µM | >64 µM | >64 µM | >64 µM | >64 µM |

More lines, now with the values ahead:

| MIC Streptococcus agalactiae H94 [1] | MIC Bifidobacteriu muniformis 6597 [2] | MIC Escherichia coli nissile1917 [3] | MIC Bifidobacterium longum 6194 [4] | MIC Lactobacillus acidophilus 6075 [5] | MIC Pseudomonas aeruginosa PAO1 [6] | MIC Lactobacterium rhamnosus 6141 [7] | MIC Fusobacterium nucleatum 25586 [8] | MIC Fusobacterium nucleatum 10953 [9] | Compound |
| --- | --- | --- | --- | --- | --- | --- | --- | --- | --- |
| >64 µM | >64 µM | 64 µM (≈ 186 µg/mL) | >64 µM | >64 µM | >64 µM | >64 µM | 64 µM (≈ 186 µg/mL) | 64 µM (≈ 186 µg/mL) | N=C(N)NCCC[C@H](NC(=O)CNC(=O)[C@@H]1CCCN1C(=O)[C@H](CCCNC(=N)N)NC(=O)[C@H](Cc1c[nH]c2ccccc12)NC(=O)[C@H](CC(=O)O)NC(=O)[C@H](Cc1c[nH]c2ccccc12)NC(=O)[C@H](Cc1c[nH]c2ccccc12)NC(=O)[C@H](CC(=O)O)NC(=O)[C@H](Cc1c[nH]c2ccccc12)NC(=O)[C@H](CCCNC(=N)N)NC(=O)CNC(=O)[C@@H]1CCCN1C(=O)[C@H](CCCNC(=N)N)NC(=O)[C@H](Cc1c[nH]c2ccccc12)NC(=O)[C@H](CC(=O)O)NC(=O)[C@@H](N)Cc1c[nH]c2ccccc12)C(=O)N[C@@H](Cc1c[nH]c2ccccc12)C(=O)N[C@@H](CC(=O)O)C(=O)N[C@@H](Cc1c[nH]c2ccccc12)C(=O)O [P6] (H-WDWRPGRWDWWDWRPGRWDW-OH; N-terminus assumed) |
| >64 µM | >64 µM | 64 µM (≈ 96.2 µg/mL) | >64 µM | 32 µM (≈ 48.1 µg/mL) | >64 µM | 64 µM (≈ 96.2 µg/mL) | 64 µM (≈ 96.2 µg/mL) | 8 µM (≈ 12 µg/mL) | N=C(N)NCCC[C@H](NC(=O)CNC(=O)[C@@H]1CCCN1C(=O)[C@H](CCCNC(=N)N)NC(=O)[C@H](Cc1c[nH]c2ccccc12)NC(=O)[C@H](Cc1c[nH]cn1)NC(=O)[C@@H](N)Cc1c[nH]c2ccccc12)C(=O)N[C@@H](Cc1c[nH]c2ccccc12)C(=O)N[C@@H](Cc1c[nH]cn1)C(=O)N[C@@H](Cc1c[nH]c2ccccc12)C(=O)O [P7, WHWRPGRWHW] (H-WHWRPGRWHW-OH; N-terminus assumed) |
| 2 µM (≈ 5.91 µg/mL) | 64 µM (≈ 189 µg/mL) | 32 µM (≈ 94.5 µg/mL) | 16 µM (≈ 47.3 µg/mL) | 32 µM (≈ 94.5 µg/mL) | 32 µM (≈ 94.5 µg/mL) | >64 µM | 2 µM (≈ 5.91 µg/mL) | 2 µM (≈ 5.91 µg/mL) | N=C(N)NCCC[C@H](NC(=O)CNC(=O)[C@@H]1CCCN1C(=O)[C@H](CCCNC(=N)N)NC(=O)[C@H](Cc1c[nH]c2ccccc12)NC(=O)[C@H](CCCCN)NC(=O)[C@H](Cc1c[nH]c2ccccc12)NC(=O)[C@H](Cc1c[nH]c2ccccc12)NC(=O)[C@H](CCCCN)NC(=O)[C@H](Cc1c[nH]c2ccccc12)NC(=O)[C@H](CCCNC(=N)N)NC(=O)CNC(=O)[C@@H]1CCCN1C(=O)[C@H](CCCNC(=N)N)NC(=O)[C@H](Cc1c[nH]c2ccccc12)NC(=O)[C@H](CCCCN)NC(=O)[C@@H](N)Cc1c[nH]c2ccccc12)C(=O)N[C@@H](Cc1c[nH]c2ccccc12)C(=O)N[C@@H](CCCCN)C(=O)N[C@@H](Cc1c[nH]c2ccccc12)C(=O)O [P12] (H-WKWRPGRWKWWKWRPGRWKW-OH; N-terminus assumed) |
| >64 µM | >64 µM | >64 µM | 64 µM (≈ 191 µg/mL) | 64 µM (≈ 191 µg/mL) | >64 µM | >64 µM | 64 µM (≈ 191 µg/mL) | 64 µM (≈ 191 µg/mL) | N=C(N)NCCC[C@H](NC(=O)CNC(=O)[C@@H]1CCCN1C(=O)[C@H](CCCNC(=N)N)NC(=O)[C@H](Cc1c[nH]c2ccccc12)NC(=O)[C@H](Cc1c[nH]cn1)NC(=O)[C@H](Cc1c[nH]c2ccccc12)NC(=O)[C@H](Cc1c[nH]c2ccccc12)NC(=O)[C@H](Cc1c[nH]cn1)NC(=O)[C@H](Cc1c[nH]c2ccccc12)NC(=O)[C@H](CCCNC(=N)N)NC(=O)CNC(=O)[C@@H]1CCCN1C(=O)[C@H](CCCNC(=N)N)NC(=O)[C@H](Cc1c[nH]c2ccccc12)NC(=O)[C@H](Cc1c[nH]cn1)NC(=O)[C@@H](N)Cc1c[nH]c2ccccc12)C(=O)N[C@@H](Cc1c[nH]c2ccccc12)C(=O)N[C@@H](Cc1c[nH]cn1)C(=O)N[C@@H](Cc1c[nH]c2ccccc12)C(=O)O [P9] (H-WHWRPGRWHWWHWRPGRWHW-OH; N-terminus assumed) |
| >64 µM | 64 µM (≈ 95.1 µg/mL) | 64 µM (≈ 95.1 µg/mL) | >64 µM | 64 µM (≈ 95.1 µg/mL) | >64 µM | >64 µM | 8 µM (≈ 11.9 µg/mL) | 16 µM (≈ 23.8 µg/mL) | N=C(N)NCCC[C@H](NC(=O)CNC(=O)[C@@H]1CCCN1C(=O)[C@H](CCCNC(=N)N)NC(=O)[C@H](Cc1c[nH]c2ccccc12)NC(=O)[C@H](CCCCN)NC(=O)[C@@H](N)Cc1c[nH]c2ccccc12)C(=O)N[C@@H](Cc1c[nH]c2ccccc12)C(=O)N[C@@H](CCCCN)C(=O)N[C@@H](Cc1c[nH]c2ccccc12)C(=O)O [P10, WKWRPGRWKW] (H-WKWRPGRWKW-OH; N-terminus assumed) |
